This passage reports Kd results from publication PMC2980852 (Biochemistry, 2010).

SMILES strings stand for the structures.

The assay deals with LuxG (Photobacterium leiognathi, UniProt P29237). The assay is described as follows: stopped-flow NADH fluorescence, amplitude titration. It is filed as binding.
LuxG, sequence (P29237 whole entry): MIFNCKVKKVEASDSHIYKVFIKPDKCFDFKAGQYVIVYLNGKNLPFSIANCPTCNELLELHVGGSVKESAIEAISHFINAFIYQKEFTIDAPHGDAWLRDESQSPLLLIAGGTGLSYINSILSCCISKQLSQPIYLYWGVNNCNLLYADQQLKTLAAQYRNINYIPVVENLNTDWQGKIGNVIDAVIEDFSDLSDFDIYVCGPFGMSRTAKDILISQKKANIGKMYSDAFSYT

The term Kd denotes the free concentration of one partner at which half of the binding sites on the other are occupied at equilibrium, for simple one-to-one binding. The compound `NC(=O)C1=CN([C@@H]2O[C@H](COP(=O)(O)OP(=O)(O)OC[C@H]3O[C@@H](n4cnc5c(N)ncnc54)[C@H](O)[C@@H]3O)[C@@H](O)[C@H]2O)C=CC1` [NADH] displayed an equilibrium dissociation constant (Kd) of 25 ± 4 µM.
